From US20230339945A1, “METHOD FOR PREPARING A CHELATING LIGAND DERIVED FROM PCTA” (GUERBET, priority 2020, published 2023)
Values belong to the compound of their own block, whether it stands above or below them.

Assays:
[1] = formation of the gadolinium complex; as described in WO 2014/174120, DOTA-Gd for comparison; cited from earlier work
[2] = decomplexation kinetics (kinetic inertia) in acidic aqueous solution, pH 1.2, 37° C.; type: physicochemical; settings: same conditions (pH 1.2, 37° C.); linear gadolinium complexes
Experimental: What is more, iso4 is the group of isomers which has the best kinetic inertia (also known as the kinetic stability) among the four groups isolated by the inventors. Specifically, the inventors evaluated the kinetic inertia of the four groups of isomers by studying their decomplexation kinetics in acidic aqueous solution (pH=1.2), at 37° C. The half-life time values (T1/2) which were determined for each of the groups of isomers are indicated in table 1 below, the half-life time corresponding to the time after which 50% of the amount of complex initially present has been dissociated, according to the following decomplexation reaction (equation 2): […]

[3] = formulation tests (concentrations of trometamol and of free ligand); type: physicochemical
Experimental: Various concentrations of trometamol from 0 to 100 mM were tested.
Various concentrations of macrocyclic ligand of formula (L) from 0 to 2.5 mM were tested.

Compound: O=C([O-])CN1CCN(CC(=O)[O-])CCN(CC(=O)O)CCN(CC(=O)[O-])CC1.[Gd+3] [DOTA-Gd, gadolinium complex of 1,4,7,10-tetraazacyclododecane-N,N′,N″,N′″-tetraacetic acid]
log (Ktherm), stability constant [1]: 25.6

kinetic inertia, dissociation in words [2]: dissociate instantaneously
Compound: O=C([O-])CN(CCN(CC(=O)[O-])CC(=O)[O-])CCN(CC(=O)[O-])CC(=O)[O-].[Gd+3] [gadopentetate]

kinetic inertia, dissociation in words [2]: dissociate instantaneously
Compound: CNC(=O)CN(CCN(CCN(CC(=O)[O-])CC(=O)NC)CC(=O)[O-])CC(=O)[O-].[Gd+3] [gadodiamide]

release of free Gd during the process and during the lifetime of the product ([3]; content of 1 mM (0.08% m/v or 0.2 mol/mol %), 0 to 2.5 mM tested): absence of release of free Gd
Compound: O=C(CCC(C(=O)O)N1CCN(C(CCC(=O)NCC(O)CO)C(=O)O)Cc2cccc(n2)CN(C(CCC(=O)NCC(O)CO)C(=O)O)CC1)NCC(O)CO (centres unmarked) [macrocyclic ligand of formula (L)]

Compound: NC(CO)(CO)CO [trometamol, Tris(hydroxymethyl)aminomethane]
pH stability of the formulation ([3]; content of 10 mM (0.12% w/v), 0 to 100 mM tested): sufficient to ensure the pH stability of the formulation
